Measurements reported in ChEMBL document CHEMBL1201862, “PubChem BioAssay data set” (2004).
Calls of active or inactive are those of the source.

How the values were obtained:
Melanocortin receptor 4 = Melanocortin receptor 4 (Homo sapiens, UniProt P32245); test: inhibitors of MC4R cAMP signaling – cell-based, TR-FRET, biased antagonists, dose response (AID 602298); type: functional;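 also: antagonist potency against agonist-stimulated cAMP production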
[1] = cAMP pathway inhibition in counterscreen cell line – TR-FRET cAMP detection, counter-screen for MC4R biased antagonist project, dose response (AID 602305); type: functional, cell-based;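 also: U2OS cells stimulated with forskolin near its EC80 as the cAMP inducer; potency is for inhibition of forskolin-stimulated cAMP signaling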
Galanin receptor type 3 = target: T1, Galanin receptor type 3 (Homo sapiens, UniProt O60755); test: Fluorescence-based cell-based primary high throughput dose response assay to identify antagonists of the Galanin Receptor 3 (GalR3).; type: functional
T1 sequence (O60755 whole entry): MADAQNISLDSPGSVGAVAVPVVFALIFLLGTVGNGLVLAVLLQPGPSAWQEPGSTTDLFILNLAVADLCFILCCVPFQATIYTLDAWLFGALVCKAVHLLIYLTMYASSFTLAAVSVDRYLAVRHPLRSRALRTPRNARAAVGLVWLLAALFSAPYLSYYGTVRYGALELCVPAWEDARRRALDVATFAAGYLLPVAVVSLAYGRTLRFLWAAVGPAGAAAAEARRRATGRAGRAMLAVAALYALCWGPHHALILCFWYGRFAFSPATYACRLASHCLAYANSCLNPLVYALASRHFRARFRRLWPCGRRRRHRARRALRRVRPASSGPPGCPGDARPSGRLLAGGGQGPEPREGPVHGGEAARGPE

HEK293 [2] = test: cells; settings: Homo sapiens
Tumor necrosis factor = Tumor necrosis factor (Homo sapiens, UniProt P01375); test: analog potency on TNFa NF-kB signaling – cell-based, revised, SAR follow-up (AID 2337); type: functional
cells = type: functional, cell-based; settings: HEK-CNG
Jurkat = test: blockers of NF-kB activation in T cells – Jurkat, luciferase reporter, luminescence, B- and T-cell, dose response (AID 489004); type: functional, cell-based; settings: Homo sapiens;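 also: NF-kB luciferase reporter Jurkat cells stimulated with PMA plus ionomycin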
INS1 = test: INS-1E survival protection against cytokine death – cell-based, luminescence, retest, dose response (AID 449756); type: functional; settings: Rattus norvegicus;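 also: cell death triggered by IL-1 beta plus TNF-alpha plus IFN-gamma mixture; protective hits raise ATP signal compared with cytokine alone wells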
[3] = HEK-293T viability loss, compound-treated – cell-based, uHTS hits, cytotoxicity control for B/T-cell NF-kB inhibitor project, dose response (AID 489019); type: functional;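 also: IC50 reflects cytotoxicity as loss of cell viability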
[4] = target: T2, Nucleotide-binding oligomerization domain-containing protein 1 (Homo sapiens, UniProt Q9Y239); test: blockers of NOD1 pathway activity – revised, SAR follow-up (AID 2333); type: functional
T2 sequence (Q9Y239 whole entry): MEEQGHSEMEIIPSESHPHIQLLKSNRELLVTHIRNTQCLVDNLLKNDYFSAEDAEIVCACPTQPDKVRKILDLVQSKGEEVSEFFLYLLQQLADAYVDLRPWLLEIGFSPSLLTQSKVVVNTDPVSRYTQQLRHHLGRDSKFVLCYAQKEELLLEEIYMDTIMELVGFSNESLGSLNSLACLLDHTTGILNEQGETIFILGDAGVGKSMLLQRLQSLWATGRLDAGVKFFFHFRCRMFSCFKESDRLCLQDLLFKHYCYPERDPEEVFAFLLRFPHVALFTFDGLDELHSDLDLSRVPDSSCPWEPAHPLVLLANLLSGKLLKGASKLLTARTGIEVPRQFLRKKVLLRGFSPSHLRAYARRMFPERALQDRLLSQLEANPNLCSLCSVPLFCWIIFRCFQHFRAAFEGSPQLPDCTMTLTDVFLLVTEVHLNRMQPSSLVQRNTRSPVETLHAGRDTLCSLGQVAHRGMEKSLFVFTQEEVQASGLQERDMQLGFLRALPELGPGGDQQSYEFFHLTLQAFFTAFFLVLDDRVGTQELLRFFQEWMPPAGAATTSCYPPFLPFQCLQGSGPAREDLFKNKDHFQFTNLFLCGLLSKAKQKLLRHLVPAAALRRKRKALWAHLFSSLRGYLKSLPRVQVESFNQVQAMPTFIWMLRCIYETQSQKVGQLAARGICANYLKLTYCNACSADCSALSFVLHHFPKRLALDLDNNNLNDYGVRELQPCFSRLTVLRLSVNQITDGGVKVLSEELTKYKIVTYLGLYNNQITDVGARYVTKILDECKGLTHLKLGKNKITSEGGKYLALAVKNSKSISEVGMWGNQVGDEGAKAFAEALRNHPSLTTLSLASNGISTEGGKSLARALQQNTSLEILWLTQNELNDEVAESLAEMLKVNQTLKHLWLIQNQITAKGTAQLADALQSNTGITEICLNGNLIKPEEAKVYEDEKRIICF

[5] = target: DNA repair and recombination protein RAD54-like (Homo sapiens, UniProt Q92698); test: RAD54 Holliday junction migration blockers – biochemical, fluorescence, cherry-picked samples, dose series, confirmation (AID 651657); type: functional
[6] = target: 26S proteasome non-ATPase regulatory subunit 14 (Homo sapiens, UniProt O00487); test: inhibition of proteasome subunit RPN11 – biochemical, fluorescence polarization, uHTS hits, confirmation (AID 602368); type: functional
Prothrombin = Prothrombin (Bos taurus, UniProt P00735); test: thrombin protease inhibitors – biochemical, fluorescence polarization, uHTS hits, dose response (AID 602369); type: functional
[7] = viability of uninfected HEp-2 cells – cell-based, HTS, cytotoxicity control for RSV inhibitor project, dose response (AID 2410); type: functional; settings: human respiratory syncytial virus
[8] = target: 72 kDa type IV collagenase (Homo sapiens, UniProt P08253); test: Dose Response validation of uHTS RPN11 inhibitor hits using a MMP-2 Fluorescence assay.; type: functional
HEK293 [9] = test: HEK293T cell viability loss, resazurin readout – resazurin fluorescence, cytotoxicity control for NF-kB activator project, SAR follow-up (AID 493251); type: functional, cell-based; settings: Homo sapiens
[10] = target: T3, Apoptotic protease-activating factor 1 (Homo sapiens, UniProt O14727); test: SAR analysis of small molecule Activators of Apaf-1 in a Fluorescent assay.; type: functional; settings: read-out: EC50_Mean;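 also: caspase-3 cleavage of fluorogenic Rh110 DEVD substrate downstream of apoptosome activation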
T3 sequence (O14727 whole entry): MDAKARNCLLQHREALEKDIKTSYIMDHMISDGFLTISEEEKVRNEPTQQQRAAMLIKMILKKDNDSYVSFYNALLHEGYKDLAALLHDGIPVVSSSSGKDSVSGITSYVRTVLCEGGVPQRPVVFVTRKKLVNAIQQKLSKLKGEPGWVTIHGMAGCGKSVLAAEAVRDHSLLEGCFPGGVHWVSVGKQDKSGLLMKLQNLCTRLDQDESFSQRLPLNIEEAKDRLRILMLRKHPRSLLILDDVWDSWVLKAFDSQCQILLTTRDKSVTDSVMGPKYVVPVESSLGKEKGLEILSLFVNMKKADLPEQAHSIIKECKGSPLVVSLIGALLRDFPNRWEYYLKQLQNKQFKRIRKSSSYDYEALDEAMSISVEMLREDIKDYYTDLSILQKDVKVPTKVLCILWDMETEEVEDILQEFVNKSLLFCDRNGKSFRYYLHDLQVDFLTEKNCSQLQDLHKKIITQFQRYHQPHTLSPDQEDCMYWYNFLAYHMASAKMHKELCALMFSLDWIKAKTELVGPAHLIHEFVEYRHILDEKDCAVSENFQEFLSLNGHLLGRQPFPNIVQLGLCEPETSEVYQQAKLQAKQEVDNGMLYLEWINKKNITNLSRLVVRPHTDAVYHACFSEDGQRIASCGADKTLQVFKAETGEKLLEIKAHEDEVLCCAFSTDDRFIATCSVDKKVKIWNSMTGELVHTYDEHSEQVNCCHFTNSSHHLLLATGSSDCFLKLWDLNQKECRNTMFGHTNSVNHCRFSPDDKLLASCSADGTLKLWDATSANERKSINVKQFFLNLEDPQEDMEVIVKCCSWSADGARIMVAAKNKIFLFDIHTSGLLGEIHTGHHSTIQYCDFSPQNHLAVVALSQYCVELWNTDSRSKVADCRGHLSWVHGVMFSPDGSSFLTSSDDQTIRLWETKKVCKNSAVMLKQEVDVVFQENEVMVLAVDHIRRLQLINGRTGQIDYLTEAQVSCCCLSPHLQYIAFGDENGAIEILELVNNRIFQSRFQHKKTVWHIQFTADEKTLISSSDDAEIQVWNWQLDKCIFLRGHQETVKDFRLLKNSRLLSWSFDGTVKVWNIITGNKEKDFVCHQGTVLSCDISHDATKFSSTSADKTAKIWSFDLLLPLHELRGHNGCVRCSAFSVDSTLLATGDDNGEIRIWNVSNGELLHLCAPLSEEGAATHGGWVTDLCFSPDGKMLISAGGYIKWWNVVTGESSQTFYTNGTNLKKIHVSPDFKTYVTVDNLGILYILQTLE

[11] = target: DNA (cytosine-5)-methyltransferase 1 (Homo sapiens, UniProt P26358); test: inhibition of DNA methylation by DNMT1 – biochemical, fluorescent molecular beacon, confirmation (AID 602386); type: functional
SUMO-activating enzyme [12] = target: T4, SUMO-activating enzyme (Homo sapiens, UniProt Q9UBT2); test: blockers of UBC9-mediated SUMO conjugation – biochemical, AlphaScreen, SUMOylation inhibitor project, confirmation (AID 2018); type: functional
[13] = target: T5, Small ubiquitin-related modifier 1 (Homo sapiens, UniProt P63165); test: SUMO1 protein interaction blockers, potency – biochemical, fluorescence polarization, uHTS hits, dose response (AID 624382); type: functional; settings: read-out: IC50_Mean
SUMO-activating enzyme [14] = target: T4, SUMO-activating enzyme; test: blockers of SAE1/SAE2–UBC9 SUMO transfer – biochemical, HTRF, uHTS, primary screen (AID 2006); type: protein-complex assay
[15] = target: T5, Small ubiquitin-related modifier 1; test: SUMO1 protein-protein binding blockers, potency – biochemical, FRET, dose response (AID 624383); type: functional; settings: read-out: IC50_Mean
[16] = Trypanosoma cruzi growth suppression in host cells – NIH3T3 host cells, beta-gal luminescence, confirmation (AID 2044); type: functional, cell-based;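 also: intracellular parasites grown in NIH/3T3 mouse fibroblasts as host cells; luminescent beta-galactosidase reporter signal from transgenic T. cruzi replicating inside host cells; inhibitors lower the luminescence signal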
[17] = NIH3T3 cell viability loss – ATP luminescence, mouse fibroblasts, counter-screen, dose response (AID 2010); type: functional, cell-based;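 also: cells exposed to compound for about 90 hours before reading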

Melanocortin receptor 4, sequence (P32245 whole entry): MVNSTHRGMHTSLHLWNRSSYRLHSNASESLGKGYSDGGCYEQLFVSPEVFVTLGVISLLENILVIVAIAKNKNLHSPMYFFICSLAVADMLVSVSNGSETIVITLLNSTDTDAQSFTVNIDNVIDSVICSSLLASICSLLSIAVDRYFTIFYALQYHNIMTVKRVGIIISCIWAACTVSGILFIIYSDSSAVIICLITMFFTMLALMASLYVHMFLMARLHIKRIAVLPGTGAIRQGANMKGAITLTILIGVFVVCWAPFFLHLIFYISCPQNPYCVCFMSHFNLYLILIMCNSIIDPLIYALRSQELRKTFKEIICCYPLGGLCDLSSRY
T5 sequence (P63165 whole entry): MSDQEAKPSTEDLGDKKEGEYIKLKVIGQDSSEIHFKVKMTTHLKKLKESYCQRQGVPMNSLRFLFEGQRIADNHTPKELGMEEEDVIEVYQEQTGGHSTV
T4 sequence (Q9UBE0 whole entry): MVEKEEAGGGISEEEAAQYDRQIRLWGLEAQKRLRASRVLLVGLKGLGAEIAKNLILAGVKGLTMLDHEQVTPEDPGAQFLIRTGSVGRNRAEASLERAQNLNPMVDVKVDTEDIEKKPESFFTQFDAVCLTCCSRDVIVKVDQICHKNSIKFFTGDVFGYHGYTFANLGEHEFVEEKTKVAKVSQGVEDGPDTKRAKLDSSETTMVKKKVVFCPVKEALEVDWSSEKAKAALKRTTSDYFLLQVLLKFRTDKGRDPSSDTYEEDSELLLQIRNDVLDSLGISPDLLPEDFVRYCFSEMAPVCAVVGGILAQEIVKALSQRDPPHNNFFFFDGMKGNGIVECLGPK
T4 sequence (Q9UBT2 whole entry): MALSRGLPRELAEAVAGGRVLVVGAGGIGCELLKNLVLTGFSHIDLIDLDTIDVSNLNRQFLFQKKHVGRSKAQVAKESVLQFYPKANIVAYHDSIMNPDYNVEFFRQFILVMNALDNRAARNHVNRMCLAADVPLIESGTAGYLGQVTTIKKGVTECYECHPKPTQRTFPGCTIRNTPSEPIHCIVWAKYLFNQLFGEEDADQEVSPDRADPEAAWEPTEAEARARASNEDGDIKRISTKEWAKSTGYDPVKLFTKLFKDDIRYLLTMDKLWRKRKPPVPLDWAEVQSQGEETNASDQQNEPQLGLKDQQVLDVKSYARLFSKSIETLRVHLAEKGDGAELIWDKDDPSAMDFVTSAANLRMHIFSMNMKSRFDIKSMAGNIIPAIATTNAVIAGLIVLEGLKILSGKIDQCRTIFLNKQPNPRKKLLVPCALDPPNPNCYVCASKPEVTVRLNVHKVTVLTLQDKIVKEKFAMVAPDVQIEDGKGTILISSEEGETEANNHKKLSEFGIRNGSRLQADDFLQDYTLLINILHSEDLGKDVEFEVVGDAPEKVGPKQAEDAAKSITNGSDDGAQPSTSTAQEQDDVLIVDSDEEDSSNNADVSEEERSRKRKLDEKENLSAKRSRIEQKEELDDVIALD
26S proteasome non-ATPase regulatory subunit 14, sequence (O00487 whole entry): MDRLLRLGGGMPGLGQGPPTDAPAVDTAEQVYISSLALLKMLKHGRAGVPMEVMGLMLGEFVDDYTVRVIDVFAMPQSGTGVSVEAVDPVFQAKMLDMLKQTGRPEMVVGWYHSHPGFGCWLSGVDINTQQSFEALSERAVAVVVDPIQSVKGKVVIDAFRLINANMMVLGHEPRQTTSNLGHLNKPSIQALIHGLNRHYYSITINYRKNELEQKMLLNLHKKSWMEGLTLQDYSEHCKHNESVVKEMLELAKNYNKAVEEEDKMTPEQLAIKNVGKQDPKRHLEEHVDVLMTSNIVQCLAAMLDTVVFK
72 kDa type IV collagenase, sequence (P08253 whole entry): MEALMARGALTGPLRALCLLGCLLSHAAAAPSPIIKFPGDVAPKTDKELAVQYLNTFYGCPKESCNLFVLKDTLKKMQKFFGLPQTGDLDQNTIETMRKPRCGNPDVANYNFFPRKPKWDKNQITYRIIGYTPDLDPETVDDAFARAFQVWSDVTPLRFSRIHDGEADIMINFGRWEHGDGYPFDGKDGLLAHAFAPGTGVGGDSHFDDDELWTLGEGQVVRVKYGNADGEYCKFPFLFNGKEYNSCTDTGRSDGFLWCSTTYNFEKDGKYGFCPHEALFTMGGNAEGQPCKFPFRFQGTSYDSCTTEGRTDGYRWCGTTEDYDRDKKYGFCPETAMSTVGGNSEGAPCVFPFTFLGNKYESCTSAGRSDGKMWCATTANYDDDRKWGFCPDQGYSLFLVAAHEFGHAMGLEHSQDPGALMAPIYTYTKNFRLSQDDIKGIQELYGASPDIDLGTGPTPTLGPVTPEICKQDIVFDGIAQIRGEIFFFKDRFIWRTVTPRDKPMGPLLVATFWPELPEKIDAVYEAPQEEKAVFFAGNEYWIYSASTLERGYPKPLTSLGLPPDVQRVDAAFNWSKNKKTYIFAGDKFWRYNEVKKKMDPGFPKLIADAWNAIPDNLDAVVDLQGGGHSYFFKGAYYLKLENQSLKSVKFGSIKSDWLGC
DNA (cytosine-5)-methyltransferase 1, sequence (P26358 whole entry): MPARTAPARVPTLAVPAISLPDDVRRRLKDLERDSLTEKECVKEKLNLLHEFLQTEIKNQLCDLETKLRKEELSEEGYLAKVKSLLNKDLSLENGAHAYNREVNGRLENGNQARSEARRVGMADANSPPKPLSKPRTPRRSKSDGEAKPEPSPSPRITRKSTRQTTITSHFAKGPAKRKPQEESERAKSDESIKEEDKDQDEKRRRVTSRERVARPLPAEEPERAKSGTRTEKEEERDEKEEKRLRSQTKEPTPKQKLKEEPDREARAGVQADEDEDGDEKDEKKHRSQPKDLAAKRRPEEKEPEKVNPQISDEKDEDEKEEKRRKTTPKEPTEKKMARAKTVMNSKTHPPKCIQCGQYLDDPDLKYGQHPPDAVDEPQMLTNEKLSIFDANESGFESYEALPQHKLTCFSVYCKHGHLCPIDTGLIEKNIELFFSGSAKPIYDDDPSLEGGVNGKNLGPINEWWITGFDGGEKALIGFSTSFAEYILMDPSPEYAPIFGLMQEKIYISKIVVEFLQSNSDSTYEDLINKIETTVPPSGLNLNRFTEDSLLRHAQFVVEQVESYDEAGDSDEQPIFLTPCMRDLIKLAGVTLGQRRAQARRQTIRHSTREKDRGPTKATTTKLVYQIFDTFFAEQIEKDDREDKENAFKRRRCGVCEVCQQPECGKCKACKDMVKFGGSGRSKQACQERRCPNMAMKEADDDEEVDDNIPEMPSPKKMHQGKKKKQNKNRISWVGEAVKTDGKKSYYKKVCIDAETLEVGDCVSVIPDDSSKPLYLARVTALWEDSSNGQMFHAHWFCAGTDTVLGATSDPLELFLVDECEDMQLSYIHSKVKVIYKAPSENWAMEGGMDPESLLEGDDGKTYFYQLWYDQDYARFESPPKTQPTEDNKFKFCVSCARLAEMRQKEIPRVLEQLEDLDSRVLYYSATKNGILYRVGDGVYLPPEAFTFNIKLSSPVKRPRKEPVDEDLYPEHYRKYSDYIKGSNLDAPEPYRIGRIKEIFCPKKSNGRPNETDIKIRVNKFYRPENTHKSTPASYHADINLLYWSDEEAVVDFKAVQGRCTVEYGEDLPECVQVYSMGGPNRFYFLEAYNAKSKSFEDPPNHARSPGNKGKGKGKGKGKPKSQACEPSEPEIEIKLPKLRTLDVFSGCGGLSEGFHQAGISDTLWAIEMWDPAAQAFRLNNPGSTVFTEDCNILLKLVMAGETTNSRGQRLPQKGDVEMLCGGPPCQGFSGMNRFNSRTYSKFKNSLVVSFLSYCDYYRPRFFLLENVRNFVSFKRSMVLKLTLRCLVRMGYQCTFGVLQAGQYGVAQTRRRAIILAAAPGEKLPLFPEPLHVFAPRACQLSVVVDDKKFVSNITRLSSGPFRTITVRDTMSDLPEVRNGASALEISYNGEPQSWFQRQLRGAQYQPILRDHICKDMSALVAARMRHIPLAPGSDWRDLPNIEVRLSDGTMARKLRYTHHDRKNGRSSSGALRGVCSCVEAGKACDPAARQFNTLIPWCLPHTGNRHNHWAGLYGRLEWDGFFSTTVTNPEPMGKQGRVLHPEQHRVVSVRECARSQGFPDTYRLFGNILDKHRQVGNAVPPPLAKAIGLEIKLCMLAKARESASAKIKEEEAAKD
Tumor necrosis factor, sequence (P01375 whole entry): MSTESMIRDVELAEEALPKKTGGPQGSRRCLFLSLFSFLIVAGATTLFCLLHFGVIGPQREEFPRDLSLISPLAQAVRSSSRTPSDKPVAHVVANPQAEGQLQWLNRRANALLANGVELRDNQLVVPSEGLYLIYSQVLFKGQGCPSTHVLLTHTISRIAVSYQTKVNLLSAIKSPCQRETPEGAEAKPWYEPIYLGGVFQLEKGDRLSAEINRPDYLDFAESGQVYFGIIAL
DNA repair and recombination protein RAD54-like, sequence (Q92698 whole entry): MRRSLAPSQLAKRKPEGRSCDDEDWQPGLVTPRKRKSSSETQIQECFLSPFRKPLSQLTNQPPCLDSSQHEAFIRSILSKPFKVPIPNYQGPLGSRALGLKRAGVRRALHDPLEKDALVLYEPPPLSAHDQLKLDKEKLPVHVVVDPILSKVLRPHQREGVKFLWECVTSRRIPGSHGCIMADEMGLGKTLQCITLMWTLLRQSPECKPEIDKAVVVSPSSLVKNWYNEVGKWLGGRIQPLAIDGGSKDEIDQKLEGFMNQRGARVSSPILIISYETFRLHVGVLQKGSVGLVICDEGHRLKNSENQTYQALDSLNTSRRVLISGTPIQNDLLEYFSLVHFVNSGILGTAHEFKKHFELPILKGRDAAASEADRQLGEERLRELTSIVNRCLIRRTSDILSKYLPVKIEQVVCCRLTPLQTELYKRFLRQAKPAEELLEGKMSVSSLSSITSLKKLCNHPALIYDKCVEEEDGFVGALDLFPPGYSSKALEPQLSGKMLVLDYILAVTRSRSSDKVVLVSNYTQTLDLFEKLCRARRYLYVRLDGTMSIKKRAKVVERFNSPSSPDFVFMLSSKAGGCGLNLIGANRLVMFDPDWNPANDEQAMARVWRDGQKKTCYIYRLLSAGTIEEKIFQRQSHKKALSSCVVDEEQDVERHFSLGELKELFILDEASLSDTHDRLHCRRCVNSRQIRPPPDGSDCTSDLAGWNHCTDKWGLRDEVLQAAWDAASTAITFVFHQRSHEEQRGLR

Question: For `O=C(/C=C/c1cccs1)N1CCC2(CC1)Oc1ccc(Cl)cc1C(=O)C21CC(c2cccnc2)=NO1` (centres undefined), which IC50 (Melanocortin receptor 4) is on record?
Answer: > 64.6 µM (inactive)

Question: What about the IC50 [1] of the same compound?
Answer: > 64.6 µM (inactive)

Question: Which results are given for `CCOc1ccc(Nc2nc(Cl)nc(N3CCN(c4ccc(OC)cc4)CC3)n2)cc1`?
Answer: IC50 (Melanocortin receptor 4): > 64.6 µM (inactive); IC50 [1]: > 64.6 µM (inactive)

Question: Which IC50 (Galanin receptor type 3) does the source give for `Cn1nccc1C(=O)NC1CCCc2c1cnn2-c1ccc(F)cc1F` (centres undefined) here?
Answer: 0.24 µM (active)

Question: What about the IC50 (HEK293 [2]) of the same compound?
Answer: > 20 µM (inactive)

Question: And the IC50 (Tumor necrosis factor)?
Answer: 0.712 µM (active)

Question: What about the EC50 (cells) of the same compound?
Answer: > 29.9 µM (inactive)

Question: What about the IC50 (Jurkat) of the same compound?
Answer: > 80 µM (inactive)

Question: And the AC50 (INS1)?
Answer: 1.44 µM (active)

Question: And the IC50 [3]?
Answer: > 80 µM (inactive)

Question: And the IC50 [4]?
Answer: 0.677 µM (active)

Question: With `Cc1ccc2nc3c(c(N)c2c1)CCN3c1ccccc1` as the compound, how does the AC50 [5] read?
Answer: 42.5 µM (active)

Question: What does the source list for `CCc1ccc(/C=C2\SC(=S)N(CCC(=O)N3CCN(C)CC3)C2=O)cc1`?
Answer: IC50 [6]: 51.6 µM (active); IC50 (Prothrombin): 82.7 µM (active); CC50 [7]: 18.6 µM (active); IC50 [8]: > 100 µM (inactive)

Question: For `CC(C)(C)c1ccc(-c2noc(CCC(=O)NC3CC3)n2)cc1`, which IC50 (HEK293 [9]) is on record?
Answer: > 80 µM (inactive)

Question: Which EC50 [10] does the source give for `O=C1CC2(CC(c3ccc(Cl)cc3)=NO2)C(=O)N1c1cccc(Cl)c1` (centres undefined) here?
Answer: > 100 µM (inactive)

Question: With `C/C(=N\NC(=O)c1cc(O)cc(O)c1)c1ccc(NC(=O)Cc2ccccc2)cc1` as the compound, how does the IC50 [11] read?
Answer: 4.69 µM (active)

Question: And the IC50 (SUMO-activating enzyme [12])?
Answer: 0.74 µM (active)

Question: What about the IC50 [13] of the same compound?
Answer: 50.1 µM (inactive)

Question: What about the IC50 (SUMO-activating enzyme [14]) of the same compound?
Answer: 9.77 µM (active)

Question: What about the IC50 [15] of the same compound?
Answer: 12 µM (active)

Question: For `O=C(N/N=C\c1ccc(-c2ccc([N+](=O)[O-])cc2)o1)C1COc2ccccc2O1` (centres undefined), which IC50 [6] is on record?
Answer: 28.2 µM (active)

Question: And the IC50 (Prothrombin)?
Answer: 36.4 µM (active)

Question: What about the EC50 [16] of the same compound?
Answer: 0.62 µM (active)

Question: What about the IC50 [8] of the same compound?
Answer: > 100 µM (inactive)

Question: What about the EC50 [17] of the same compound?
Answer: > 60 µM (not active)
